Laboratory results as given in patent US11707454B2, “Topical roflumilast formulation having antifungal properties” (ARCUTIS BIOTHERAPEUTICS, INC., priority 2020, dated 2023).
Values after ≈ are worked out from the molar mass of the structure shown. Where two headings read alike, the source gives them in different places.

What was measured:
Assay type in all cases: cell-based
[1] = tested on: C. krusei (ATCC 6258); test: in vitro micro-dilution susceptibility assay (method of Rojas); conditions: Pichia kudriavzevii, read-out: minimum inhibition concentration (MIC)
Protocol: (§1) The in vitro susceptibility of Malassezia species to roflumilast was determined utilizing three Candida species as internal control isolates for all testing. These three isolates were C. albicans American Type Culture Collection (ATCC) 90028, C. krusei (ATCC 6258) and C. parapsilosis (ATCC 22019). In addition to testing roflumilast all susceptibility assays were conducted using ketoconazole and hydrocortisone as positive and negative control compounds, respectively. All assays were placed within a humidified incubator set to 32° C. for a total of seven days. Each assay was evaluated after 12 hours of incubation and, every 24 hours post incubation for a total of seven days. The assays were evaluated for visual growth of each pathogen in the no treatment control as well as determination of minimum inhibition concentration (MIC) values. The concentration that provides a 3-log10 CFU/mL reduction in fungal burden from baseline at day 0 was defined as the minimum fungicidal concentration (MHC) and was determined by quantifying fungal burdens found in the microplate at day seven.
(§2) The method of Rojas (Rojas F D, et al. Antifungal susceptibility of Malassezia furfur, Malassezia sympodialis, and Malassezia globose to azole drugs and amphotericin B evaluated using a broth microdilution method. 2014. Medical Mycology. 52:641-646) was used in which the liquid broth medium was RPMI 1640 with added 1.8% glucose, 1% peptone, 0.5% ox-bile, 0.5% malt extract, 1% glycerol, 0.5% Tween 40 and 0.05% Tween 80. Round bottom 96 well microplates were used. The inoculums were prepared in sterile saline and diluted to a final targeted concentration of 0.5×10^5 to 2.5×10^5 CFU/mL in supplemented RPMI. […] For the internal control isolate C. parapsilosis (ATCC 22019) the expected CLSI values for ketoconazole of 0.03-0.25 (at 24 hours) and 0.06-0.5 (at 48 hours) did agree with the 2-day value (Table A) of 0.5.

[2] = tested on: C. albicans (ATCC 90028); test: as above; conditions: Candida albicans, read-out: minimum inhibition concentration (MIC)
Protocol: as §1, §2

[3] = tested on: M. furfur (ATCC 44344); test: as above; conditions: for MIC: Malassezia furfur, read-out: minimum inhibition concentration (MIC)
Protocol: as §1, §2

[4] = tested on: M. furfur (ATCC 14521); test: as above
Protocol: as §1, §2

[5] = tested on: M. furfur (ATCC 12078); test: as above; conditions: for MIC: Malassezia furfur, read-out: minimum inhibition concentration (MIC)
Protocol: as §1, §2

[6] = tested on: C. parapsilosis (ATCC 22019); test: as above; conditions: Lodderomyces parapsilosis, C. parapsilosis (22019), read-out: minimum inhibition concentration (MIC)
Protocol: as §1, §2

[7] = tested on: M. restricta (ATCC MYA-4611); test: as above; conditions: for MIC: read-out: minimum inhibition concentration (MIC)
Protocol: as §1, §2

[8] = tested on: M. globose (ATCC MYA-4889); test: as above; conditions: for MIC: read-out: minimum inhibition concentration (MIC)
Protocol: as §1, §2

[9] = tested on: Candida species; test: in vitro micro-dilution susceptibility assay, summary; conditions: method of Rojas
Protocol: as §1, with “seven. […]” for “seven.”

[10] = tested on: Malassezia species; test: as above; conditions: compared to the hydrocortisone negative control
Protocol: as §1, with “seven. […]” for “seven.”

MIC ([1]; ATCC6258, 12 h, Time 0.5 days): 128 µg/mL (≈ 317 µM) | MIC ([1]; ATCC6258, 24 h, Time 1 days): 1020 µg/mL (≈ 2540 µM) | MIC ([1]; ATCC6258, 48 h, Time 2 days): > 1020 µg/mL | MIC ([1]; ATCC6258, 72 h, Time 3 days): > 1020 µg/mL | MIC ([1]; ATCC6258, 96 h, Time 4 days): > 1020 µg/mL | MIC ([1]; ATCC6258, 120 h, Time 5 days): > 1020 µg/mL | MIC ([1]; ATCC6258, 144 h, Time 6 days): > 1020 µg/mL | MIC ([1]; ATCC6258, 168 h, Time 7 days): > 1020 µg/mL | MIC ([2]; ATCC90028, 12 h, Time 0.5 days): > 1020 µg/mL | MIC ([2]; ATCC90028, 24 h, Time 1 days): > 1020 µg/mL | MIC ([2]; ATCC90028, 48 h, Time 2 days): > 1020 µg/mL | MIC ([2]; ATCC90028, 72 h, Time 3 days): > 1020 µg/mL | MIC ([2]; ATCC90028, 96 h, Time 4 days): > 1020 µg/mL | MIC ([2]; ATCC90028, 120 h, Time 5 days): > 1020 µg/mL | MIC ([2]; ATCC90028, 144 h, Time 6 days): > 1020 µg/mL | MIC ([2]; ATCC90028, 168 h, Time 7 days): > 1020 µg/mL | MIC ([3]; ATCC44344, 48 h, Time 2 days): 64 µg/mL (≈ 159 µM) | MIC ([3]; ATCC44344, 72 h, Time 3 days): 64 µg/mL (≈ 159 µM) | MIC ([3]; ATCC44344, 96 h, Time 4 days): 64 µg/mL (≈ 159 µM) | MIC ([3]; ATCC44344, 120 h, Time 5 days): 64 µg/mL (≈ 159 µM) | MIC ([3]; ATCC44344, 144 h, Time 6 days): 64 µg/mL (≈ 159 µM) | MIC ([3]; ATCC44344, 168 h, Time 7 days): 64 µg/mL (≈ 159 µM) | minimum inhibition concentration (MIC) ([3]; Time 0.5 days): NGO | minimum inhibition concentration (MIC) ([3]; Time 1 days): NGO | minimum inhibition concentration (MIC) ([4]; Time 0.5 days): NGO | minimum inhibition concentration (MIC) ([4]; Time 1 days): NGO | MIC ([5]; ATCC12078, 48 h, Time 2 days): 128 µg/mL (≈ 317 µM) | MIC ([5]; ATCC12078, 72 h, Time 3 days): 128 µg/mL (≈ 317 µM) | MIC ([5]; ATCC12078, 96 h, Time 4 days): 128 µg/mL (≈ 317 µM) | MIC ([5]; ATCC12078, 120 h, Time 5 days): 128 µg/mL (≈ 317 µM) | MIC ([5]; ATCC12078, 144 h, Time 6 days): 128 µg/mL (≈ 317 µM) | MIC ([5]; ATCC12078, 168 h, Time 7 days): 128 µg/mL (≈ 317 µM) | minimum inhibition concentration (MIC) ([5]; Time 0.5 days): NGO | minimum inhibition concentration (MIC) ([5]; Time 1 days): NGO | MIC ([6]; ATCC22019, 12 h, Time 0.5 days): 1020 µg/mL (≈ 2540 µM) | MIC ([6]; ATCC22019, 24 h, Time 1 days): 1020 µg/mL (≈ 2540 µM) | MIC ([6]; ATCC22019, 48 h, Time 2 days): > 1020 µg/mL | MIC ([6]; ATCC22019, 72 h, Time 3 days): > 1020 µg/mL | MIC ([6]; ATCC22019, 96 h, Time 4 days): > 1020 µg/mL | MIC ([6]; ATCC22019, 120 h, Time 5 days): > 1020 µg/mL | MIC ([6]; ATCC22019, 144 h, Time 6 days): > 1020 µg/mL | MIC ([6]; ATCC22019, 168 h, Time 7 days): > 1020 µg/mL | MIC ([7]; 48 h, Time 2 days): 32 µg/mL (≈ 79.4 µM) | MIC ([7]; 72 h, Time 3 days): 32 µg/mL (≈ 79.4 µM) | MIC ([7]; 96 h, Time 4 days): 32 µg/mL (≈ 79.4 µM) | MIC ([7]; 120 h, Time 5 days): 32 µg/mL (≈ 79.4 µM) | MIC ([7]; 144 h, Time 6 days): 32 µg/mL (≈ 79.4 µM) | MIC ([7]; 168 h, Time 7 days): 64 µg/mL (≈ 159 µM) | minimum inhibition concentration (MIC) ([7]; Time 0.5 days): NGO | minimum inhibition concentration (MIC) ([7]; Time 1 days): NGO | MIC ([8]; 48 h, Time 2 days): 32 µg/mL (≈ 79.4 µM) | MIC ([8]; 72 h, Time 3 days): 32 µg/mL (≈ 79.4 µM) | MIC ([8]; 96 h, Time 4 days): 128 µg/mL (≈ 317 µM) | MIC ([8]; 120 h, Time 5 days): 128 µg/mL (≈ 317 µM) | MIC ([8]; 144 h, Time 6 days): 128 µg/mL (≈ 317 µM) | MIC ([8]; 168 h, Time 7 days): 128 µg/mL (≈ 317 µM) | minimum inhibition concentration (MIC) ([8]; Time 0.5 days): NGO | minimum inhibition concentration (MIC) ([8]; Time 1 days): NGO
Compound: O=C(Nc1c(Cl)cncc1Cl)c1ccc(OC(F)F)c(OCC2CC2)c1 [Roflumilast, N-(3,5-dichloropyrid-4-yl)-3-cyclopropylmethoxy-4-difluoromethoxybenzamid-e]
antifungal activity against the tested Candida species [9]: did not demonstrate antifungal activity | antifungal activity against Malassezia species [10]: provides antifungal activity against Malassezia species
